Bounds are passed on as bounds.

The subject of the experiment is PDE4. As to the kind of experiment: Evaluation of PDE4 inhibition (scintillation proximity assay). The settings on record: inhibition rate relative to control, test compound at 1 μM. It is filed as biochemical. Put shortly: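 PDE4 was incubated 120 min at room temperature with [3H]-cAMP and compound in 50 mM Tris-HCl pH 7.5, 8.3 mM MgCl2, 1.7 mM EDTA, 0.3 mg/mL BSA. Product captured on ZnSO4-containing YSi-SPA beads and counted; inhibition calculated against DMSO control after no-enzyme blank subtraction.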
Background: SPA uses beads or plates that emit light when radiolabelled molecules are held near them.
For `C[C@H]1CNCCN1c1nc2cc(F)cc(-c3ccccn3)c2o1` [Example 102, (S)-5-Fluoro-2-(2-methylpiperazin-1-yl)-7-(pyridin-2-yl)benzoxazole], the “PDE4 inhibitory activity (1 μM (%))” value came to 85%.
On to `CCCOc1cc(Cl)cc2nc(N3CCNC[C@@H]3C)oc12` [Example 30, (S)-5-Chloro-2-(2-methylpiperazin-1-yl)-7-n-propoxybenzoxazole], for which the “PDE4 inhibitory activity (1 μM (%))” value is 61%.
The value for `C[C@H]1CNCCN1c1nc2cc(Cl)cc(-c3ccc(F)cc3)c2o1` [Example 81, (S)-5-Chloro-7-(4-fluorophenyl)-2-(2-methylpiperazin-1-yl)benzoxazole] was 68%; that for `C[C@H]1CNCCN1c1nc2cc(Cl)cc(-c3ccc(Cl)cn3)c2o1` [Example 58, (S)-5-Chloro-7-(5-chloropyridin-2-yl)-2-(2-methylpiperazin-1-yl)benzoxazole] was 77%.
Then `CCCC[C@H]1CNCCN1c1nc2cc(Cl)cc(CC)c2o1` [Example 13, (S)-2-(2-n-Butylpiperazin-1-yl)-5-chloro-7-ethylbenzoxazole], with below 10%; and `C[C@H]1CNCCN1c1nc2cc(Cl)cc(-c3ncc([N+](=O)[O-])s3)c2o1` [Example 78, (S)-5-Chloro-2-(2-methylpiperazin-1-yl)-7-(5-nitrothiazol-2-yl)benzoxazole], with 58%; and `Cc1cnc(-c2cc(Cl)cc3nc(N4CCNC[C@@H]4C)oc23)s1` [Example 63, (S)-5-Chloro-2-(2-methylpiperazin-1-yl)-7-(5-methylthiazol-2-yl)benzoxazole], with 87%.
Then `COc1c(Cl)cc(-c2nccs2)c2oc(N3CCNC[C@@H]3C)nc12` [Example 155, (S)-5-Chloro-4-methoxy-2-(2-methylpiperazin-1-yl)-7-(thiazol-2-yl)benzoxazole], with 96%; and `C[C@H]1CNCCN1c1nc2c(-c3ccccc3)c(Cl)cc(-c3ccccn3)c2o1` [Example 148, (S)-5-Chloro-2-(2-methylpiperazin-1-yl)-4-phenyl-7-(pyridin-2-yl)benzoxazole], with 94%; and `C[C@H]1CNCCN1c1nc2cc(Cl)cc(-n3cccn3)c2o1` [Example 33, (S)-5-Chloro-2-(2-methylpiperazin-1-yl)-′7-(1H-pyrazol-1-yl)benzoxazole], with 93%.
In the case of `C[C@H]1CNCCN1c1nc2c(F)c(Cl)c(F)c(-c3nccs3)c2o1` [Example 121, (S)-5-Chloro-4,6-difluoro-2-(2-methylpiperazin-1-yl)-7-(thiazol-2-yl)benzoxazole], the “PDE4 inhibitory activity (1 μM (%))” value was 62%.
The value for `COc1cc(Cl)cc2nc(N3CCNC[C@@H]3C)oc12` [Example 2, (S)-5-Chloro-7-methoxy-2-(2-methylpiperazin-1-yl)benzoxazole] was 23%.
For `C[C@H]1CNCCN1c1nc2cc(Cl)cc(C#N)c2o1` [Example 10, (S)-5-Chloro-7-cyano-2-(2-methylpiperazin-1-yl)benzoxazole], the “PDE4 inhibitory activity (1 μM (%))” value is recorded as 36%.
The value for `Cc1cc(-c2ccccn2)c2oc(N3CCNC[C@@H]3C)nc2c1` [Example 114, (S)-5-methyl-2-(2-methylpiperazin-1-yl)-7-(pyridin-2-yl)benzoxazole] was 77%; that for `C[C@H]1CN(c2nc3c(OC(F)(F)F)c(Cl)cc(-c4nccs4)c3o2)CCN1` [Example 177, (S)-5-Chloro-2-(3-methylpiperazin-1-yl)-7-(thiazol-2-yl)-4-(trifluoromethoxy)benzoxazole] was 93%.
Then `C[C@H]1CNCCN1c1nc2cc(Cl)c(F)c(-n3cccn3)c2o1` [Example 94, (S)-5-Chloro-6-fluoro-2-(2-methylpiperazin-1-yl)-7-(1H-pyrazol-1-yl)benzoxazole], with 62%.
Consider `C[C@H]1CNCCN1c1nc2cc(Cl)cc(-c3cccs3)c2o1` [Example 18, (S)-5-Chloro-2-(2-methylpiperazin-1-yl)-7-(thiophen-2-yl)benzoxazole], for which the “PDE4 inhibitory activity (1 μM (%))” value is 76%.

Source of the values: patent publication US9890142B2, “PDE4 inhibitor” (Meiji Seika Pharma Co., Ltd., priority 2013, dated 2018).
